In EP4603105A1, “PHARMACEUTICAL COMPOSITION CONTAINING CYCLIC COMPOUND HAVING SELECTIVE KRAS INHIBITORY EFFECT AGAINST HRAS AND NRAS” (CHUGAI SEIYAKU KABUSHIKI KAISHA, priority 2022, dated 2024):

Legend:
[1] = target: GDP-bound NRAS wild-type protein (Homo sapiens, UniProt P01111); assay: Binding to NRAS by surface plasmon resonance (SPR), KD and KD ratio to KRAS
Method in brief: (§1)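 Recombinant RAS proteins bearing a biotinylated Avi tag and loaded with GDP served as the captured ligand, recaptured fresh every cycle. Binding responses were referenced to an uncoated surface and a buffer-only blank cycle. Dissociation constants were obtained by 1:1 model fitting at 30°C.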

[2] = tested on: human lung cancer strain NCI-H441; format: cell-based
Method in brief: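 Signal came from […] measured per well once the reagent was added. Beforehand, cells were cultured at 37°C and 5% carbon dioxide on a compound series serially diluted in dimethyl sulfoxide.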

HRAS wild-type protein = HRAS wild-type protein (Homo sapiens, UniProt P01112); assay: Binding to HRAS by surface plasmon resonance (SPR), KD and KD ratio to KRAS
HRAS wild-type protein, sequence (P01112 whole entry): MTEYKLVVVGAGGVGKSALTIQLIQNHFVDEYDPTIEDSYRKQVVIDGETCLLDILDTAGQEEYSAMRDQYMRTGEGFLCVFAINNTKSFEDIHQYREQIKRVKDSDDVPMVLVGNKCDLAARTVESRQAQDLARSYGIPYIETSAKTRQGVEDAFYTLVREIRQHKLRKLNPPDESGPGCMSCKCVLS
Method in brief: as §1

[3] = ratio of KD for GDP-bound NRAS wild-type protein to KD for KRAS
[4] = ratio of KD for HRAS wild-type protein to KD for KRAS
[5] = ratio of KD with respect to GDP-bound NRAS wild-type protein to KD with respect to KRAS
[6] = ratio of KD with respect to HRAS wild-type protein to KD with respect to KRAS

GDP-bound NRAS wild-type protein, sequence (P01111 whole entry): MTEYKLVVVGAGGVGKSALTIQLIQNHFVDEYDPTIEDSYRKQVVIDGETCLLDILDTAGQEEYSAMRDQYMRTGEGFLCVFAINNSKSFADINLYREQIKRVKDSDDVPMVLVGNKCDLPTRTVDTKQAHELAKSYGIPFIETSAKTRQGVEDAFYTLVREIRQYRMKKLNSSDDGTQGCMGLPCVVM

Compound	NRAS /KRAS [1, 3]	IC50 [2] [nM]	HRAS /KRAS (HRAS wild-type protein; [4])	NRAS /KRAS [1, 5]	HRAS /KRAS (HRAS wild-type protein; [6])
C=CC[C@H]1C(=O)N[C@@H]([C@@H](C)CC)C(=O)N(C)CC(=O)N(C)[C@H]2C/C=C\CCN(C2=O)[C@@H](Cc2ccc(C(F)(F)F)cc2)C(=O)N(C)CC(=O)N[C@@H](CCc2cc(F)c(C(F)(F)F)c(F)c2)C(=O)N2C[C@H](OCC)C[C@H]2C(=O)NC2(CCC2)C(=O)N(C)[C@@H](C2CCCC2)C(=O)N(C)[C@H](C(=O)N(C)C)CC(=O)N1C [PP1114]	A (a compound having 10 or more and less than 20 is denoted as A)	12.2	A (a compound having 10 or more and less than 20 is denoted as A)		
C#CC[C@H]1C(=O)N[C@@H]([C@@H](C)CC)C(=O)N(C)CC(=O)N(C)[C@H]2C/C=C\CCN(C2=O)[C@@H](Cc2ccc(C(F)(F)F)cc2)C(=O)N(C)CC(=O)N[C@@H](CCc2cc(F)c(C(F)(F)F)c(F)c2)C(=O)N2C[C@H](OCC)C[C@H]2C(=O)NC2(CCC2)C(=O)N(C)[C@@H](C2CCCC2)C(=O)N(C)[C@H](C(=O)N(C)C)CC(=O)N1C [PP1115]	A (a compound having 10 or more and less than 20 is denoted as A)	29	A (a compound having 10 or more and less than 20 is denoted as A)		
CCO[C@@H]1C[C@H]2C(=O)NC3(CCC3)C(=O)N(C)[C@@H](C3CCCC3)C(=O)N(C)[C@H](C(=O)N(C)C)CC(=O)N(C)[C@@H](Cc3ccccc3)C(=O)N[C@@H]([C@@H](C)CC)C(=O)N(C)CC(=O)N(C)[C@H]3C/C=C\CCN(C3=O)[C@@H](Cc3ccc(C(F)(F)F)cc3)C(=O)N(C)CC(=O)N[C@@H](CCc3cc(F)c(C(F)(F)F)c(F)c3)C(=O)N2C1 [PP1116]	A (a compound having 10 or more and less than 20 is denoted as A)	19.8	A (a compound having 10 or more and less than 20 is denoted as A)		
CCO[C@@H]1C[C@H]2C(=O)NC3(CCC3)C(=O)N(C)[C@@H](C3CCCC3)C(=O)N(C)[C@H](C(=O)N(C)C)CC(=O)N(C)[C@@H](CC(C)(C)C)C(=O)N[C@@H]([C@@H](C)CC)C(=O)N(C)CC(=O)N(C)[C@H]3C/C=C\CCN(C3=O)[C@@H](Cc3ccc(C(F)(F)F)cc3)C(=O)N(C)CC(=O)N[C@@H](CCc3cc(F)c(C(F)(F)F)c(F)c3)C(=O)N2C1 [PP1117]	A (a compound having 10 or more and less than 20 is denoted as A)	16.5	A (a compound having 10 or more and less than 20 is denoted as A)		
CCO[C@@H]1C[C@H]2C(=O)NC3(CCC3)C(=O)N(C)[C@@H](C3CCCC3)C(=O)N(C)[C@H](C(=O)N(C)C)CC(=O)N(C)[C@@H](CSC)C(=O)N[C@@H]([C@@H](C)CC)C(=O)N(C)CC(=O)N(C)[C@H]3C/C=C\CCN(C3=O)[C@@H](Cc3ccc(C(F)(F)F)cc3)C(=O)N(C)CC(=O)N[C@@H](CCc3cc(F)c(C(F)(F)F)c(F)c3)C(=O)N2C1 [PP1119]	A (a compound having 10 or more and less than 20 is denoted as A)	25.5	A (a compound having 10 or more and less than 20 is denoted as A)		
CCO[C@@H]1C[C@H]2C(=O)NC3(CCC3)C(=O)N(C)[C@@H](C3CCCC3)C(=O)N(C)[C@H](C(=O)N(C)C)CC(=O)N(C)[C@@H](CC(F)F)C(=O)N[C@@H]([C@@H](C)CC)C(=O)N(C)CC(=O)N(C)[C@H]3C/C=C\CCN(C3=O)[C@@H](Cc3ccc(C(F)(F)F)cc3)C(=O)N(C)CC(=O)N[C@@H](CCc3cc(F)c(C(F)(F)F)c(F)c3)C(=O)N2C1 [PP1120]	A (a compound having 10 or more and less than 20 is denoted as A)	20.6	A (a compound having 10 or more and less than 20 is denoted as A)		
CCO[C@@H]1C[C@H]2C(=O)NC3(CCC3)C(=O)N(C)[C@@H](C3CCCC3)C(=O)N(C)[C@H](C(=O)N(C)C)CC(=O)N(C)[C@@H](CCC(F)F)C(=O)N[C@@H]([C@@H](C)CC)C(=O)N(C)CC(=O)N(C)[C@H]3C/C=C\CCN(C3=O)[C@@H](Cc3ccc(C(F)(F)F)cc3)C(=O)N(C)CC(=O)N[C@@H](CCc3cc(F)c(C(F)(F)F)c(F)c3)C(=O)N2C1 [PP1121]	A (a compound having 10 or more and less than 20 is denoted as A)	17.3	A (a compound having 10 or more and less than 20 is denoted as A)		
CCO[C@@H]1C[C@H]2C(=O)NC3(CCC3)C(=O)N(C)[C@@H](C3CCCC3)C(=O)N(C)[C@H](C(=O)N(C)C)CC(=O)N(C)[C@@H](CCC(=O)N(C)C)C(=O)N[C@@H]([C@@H](C)CC)C(=O)N(C)CC(=O)N(C)[C@H]3C/C=C\CCN(C3=O)[C@@H](Cc3ccc(C(F)(F)F)cc3)C(=O)N(C)CC(=O)N[C@@H](CCc3cc(F)c(C(F)(F)F)c(F)c3)C(=O)N2C1 [PP1122]	A (a compound having 10 or more and less than 20 is denoted as A)	275	B (a compound having 3 or more and less than 10 is denoted as B)		
CCO[C@@H]1C[C@H]2C(=O)NC3(CCC3)C(=O)N(C)[C@@H](C3CCCC3)C(=O)N(C)[C@H](C(=O)N(C)C)CC(=O)N(C)[C@@H](Cc3cccs3)C(=O)N[C@@H]([C@@H](C)CC)C(=O)N(C)CC(=O)N(C)[C@H]3C/C=C\CCN(C3=O)[C@@H](Cc3ccc(C(F)(F)F)cc3)C(=O)N(C)CC(=O)N[C@@H](CCc3cc(F)c(C(F)(F)F)c(F)c3)C(=O)N2C1 [PP1123]	A (a compound having 10 or more and less than 20 is denoted as A)	13.4	B (a compound having 3 or more and less than 10 is denoted as B)		
CCO[C@@H]1C[C@H]2C(=O)NC3(CCC3)C(=O)N(C)[C@@H](C3CCCC3)C(=O)N(C)[C@H](C(=O)N(C)C)CC(=O)N(C)[C@@H](CC(F)(F)F)C(=O)N[C@@H]([C@@H](C)CC)C(=O)N(C)CC(=O)N(C)[C@H]3C/C=C\CCN(C3=O)[C@@H](Cc3ccc(C(F)(F)F)cc3)C(=O)N(C)CC(=O)N[C@@H](CCc3cc(F)c(C(F)(F)F)c(F)c3)C(=O)N2C1 [PP1124]	A (a compound having 10 or more and less than 20 is denoted as A)	12.4	B (a compound having 3 or more and less than 10 is denoted as B)		
CCO[C@@H]1C[C@H]2C(=O)NC3(CCC3)C(=O)N(C)[C@@H](C3CCCC3)C(=O)N(C)[C@H](C(=O)N(C)C)CC(=O)N(C)[C@@H](CC3CCCCC3)C(=O)N[C@@H]([C@@H](C)CC)C(=O)N(C)CC(=O)N(C)[C@H]3C/C=C\CCN(C3=O)[C@@H](Cc3ccc(C(F)(F)F)cc3)C(=O)N(C)CC(=O)N[C@@H](CCc3cc(F)c(C(F)(F)F)c(F)c3)C(=O)N2C1 [PP1125]	A (a compound having 10 or more and less than 20 is denoted as A)	15	A (a compound having 10 or more and less than 20 is denoted as A)		
CCO[C@@H]1C[C@H]2C(=O)NC3(CCC3)C(=O)N(C)[C@@H](C3CCCC3)C(=O)N(C)[C@H](C(=O)N(C)C)CC(=O)N(C)[C@@H](Cc3cccc(F)c3)C(=O)N[C@@H]([C@@H](C)CC)C(=O)N(C)CC(=O)N(C)[C@H]3C/C=C\CCN(C3=O)[C@@H](Cc3ccc(C(F)(F)F)cc3)C(=O)N(C)CC(=O)N[C@@H](CCc3cc(F)c(C(F)(F)F)c(F)c3)C(=O)N2C1 [PP1126]	A (a compound having 10 or more and less than 20 is denoted as A)	7.1	A (a compound having 10 or more and less than 20 is denoted as A)		
CCO[C@@H]1C[C@H]2C(=O)NC3(CCC3)C(=O)N(C)[C@@H](C3CCCC3)C(=O)N(C)[C@H](C(=O)N(C)C)CC(=O)N(C)[C@@H](Cc3cccc(Cl)c3)C(=O)N[C@@H]([C@@H](C)CC)C(=O)N(C)CC(=O)N(C)[C@H]3C/C=C\CCN(C3=O)[C@@H](Cc3ccc(C(F)(F)F)cc3)C(=O)N(C)CC(=O)N[C@@H](CCc3cc(F)c(C(F)(F)F)c(F)c3)C(=O)N2C1 [PP1127]	AA (a compound having 20 or more is denoted as AA)	11.9	A (a compound having 10 or more and less than 20 is denoted as A)		
CC[C@H](C)[C@@H]1NC(=O)[C@H](CC)N(C)C(=O)C[C@@H](C(=O)N(C)C)N(C)C(=O)[C@H](C2CCCC2)N(C)C(=O)C2(CCC2)NC(=O)[C@@H]2C[C@H](OC)CN2C(=O)[C@H](CCc2cc(F)c(C(F)(F)F)c(F)c2)NC(=O)CN(C)C(=O)[C@H](Cc2ccc(C(F)(F)F)cc2)N2CC/C=C\C[C@@H](C2=O)N(C)C(=O)CN(C)C1=O [PP1128]	AA (a compound having 20 or more is denoted as AA)	121	A (a compound having 10 or more and less than 20 is denoted as A)		
CCO[C@@H]1C[C@H]2C(=O)NC3(CCC3)C(=O)N(C)[C@@H](C3CCCC3)C(=O)N(C)[C@H](C(=O)N3C[C@@H](C)O[C@@H](C)C3)CC(=O)N(C)[C@@H](CC(C)C)C(=O)N[C@@H]([C@@H](C)CC)C(=O)N(C)CC(=O)N(C)[C@H]3CCCCCN(C3=O)[C@@H](Cc3ccc(F)cc3)C(=O)N(C)CC(=O)N[C@@H](CCc3ccc(C(F)(F)F)c(Cl)c3)C(=O)N2C1 [PP1153]		15.5		B (a compound having 3 or more and less than 10 is denoted as B)	B (a compound having 3 or more and less than 10 is denoted as B)
CCO[C@@H]1C[C@H]2C(=O)NC3(CCC3)C(=O)N(C)[C@@H](C3CCCC3)C(=O)N(C)[C@H](C(=O)N(C)CC)CC(=O)N(C)[C@@H](CC(C)C)C(=O)N[C@@H]([C@@H](C)CC)C(=O)N(C)CC(=O)N(C)[C@H]3C/C=C\CCN(C3=O)[C@@H](Cc3ccc(C(F)(F)F)cc3)C(=O)N(C)CC(=O)N[C@@H](CCc3cc(F)c(C(F)(F)F)c(F)c3)C(=O)N2C1 [PP1300]		9.5		A (a compound having 10 or more and less than 20 is denoted as A)	A (a compound having 10 or more and less than 20 is denoted as A)
